# Measured values taken from patent US20210038502A1, “S1PR2 ANTAGONISTS FOR TREATING DISEASES INVOLVING ABNORMAL IMMUNE RESPONSES” (INSERM (Institut National de la Santé et de la Recherche …, priority 2017, published 2021).
# Experiments:
# tonsil naive T cells = experiment: Transwell chemotaxis of tonsil naive T cells towards S1P; type: cell-based, human; conditions: for Effect of pharmacological inhibitor on tonsil naive T cell migration to S1P: tonsil naive T cells, 2 h pre-incubation with inhibitor
# tonsil TCM and TEM cells = experiment: Transwell migration of tonsil memory T cells (TCM, TEM) in presence of S1P; type: cell-based, human; conditions: for Impact on memory T cell migration in the presence of S1P: tonsil memory T cells
# [1] = test system: peripheral T cells and NK cells; conditions: cited from earlier work
# [2] = test system: act-CD4+ and act-CD8+ T cells; experiment: Transwell migration of tonsil recently activated T cells (CD38+HLA-DR+) in presence of S1P; type: cell-based, human
# Excerpt: Upon antigen-mediated activation, T cells are retained within secondary lymphoid organs, presumably to sustain their activation and differentiation through serial interactions with antigen presenting cells. Mechanistically, it was previously reported that mouse T cells lose their reactivity during this phase by down regulating S1PR1 expression (Matloubian et al., 2004). We addressed this point in human, exploiting the fact that tonsils contain act-T cells in a variable proportion, classically defined as CD38^+HLA-DR^+.
# tonsil T cell subsets = experiment: Transwell migration of tonsil T cell subsets toward CXCL12 +/- S1P
# Procedure: Results are shown as migration index.
# All material was used after obtaining informed consent and the research was conducted in accordance with the Helsinki Declaration. […] Pediatric tonsils were obtained from patients undergoing tonsillectomy and were cut into pieces using a scalpel and then passed through a 70 μM cell strained to produce a cell suspension. Cells were then ficollized and washed before migration studies.
# Tonsil lymphocytes or PBMC were suspended in RPMI1640 supplemented with 4 mg/ml fatty acid-free bovine albumin (Sigma, St-Louis, USA). […] Cell migration was analyzed in Transwell chambers (Costar, Cambridge, USA) with 5 μm pore-width polycarbonate filters. […] PBMC or tonsil cells were added to the top chambers of the transwell systems in the presence or absence of the pharmacological inhibitors and incubated at 37° C. for 2 hours. The chemoattractants were then added in the lower chamber and the cells were allowed to migrate for 2 hours. Transmigrated cells were stained for CD3 (UCHT1), CD4 (RPA-T4), CD8 (RPA-T8), CD45RO (UCHL1), CCR7 (G043H7), CD69 (FN50), CD103 (Ber-act8), CD38 (HIT32) and HLA-DR (LN3) and analyzed/counted by flow cytometry (MACSquant, Miltenyi biotec, Bergisch Gladbach, Germany). All antibodies were purchased from BD-Biosciences (San Jose, Calif.), eBioscience (San Diego, Calif.), Beckman-Coulter (Miami, Fla.) or Biolegend (San Diego, Calif.). […] The percentage of input was calculated as the ratio between the number of cells migrating in a given condition and the number of cells used for the chemotaxis assay.
# [3] = test system: tonsil CD4+ TRM cells (CD69 positive); experiment: Transwell migration of tonsil resident memory T cells (TRM) in presence of S1P; conditions: irrespective of CD103 expression
# Procedure: All material was used after obtaining informed consent and the research was conducted in accordance with the Helsinki Declaration. Human peripheral blood was obtained from healthy donors. Cells were ficollized and then washed several times in complete medium before resuspension in chemotaxis medium. Pediatric tonsils were obtained from patients undergoing tonsillectomy and were cut into pieces using a scalpel and then passed through a 70 μM cell strained to produce a cell suspension. Cells were then ficollized and washed before migration studies.
# Tonsil lymphocytes or PBMC were suspended in RPMI1640 supplemented with 4 mg/ml fatty acid-free bovine albumin (Sigma, St-Louis, USA). […] Cell migration was analyzed in Transwell chambers (Costar, Cambridge, USA) with 5 μm pore-width polycarbonate filters. […] Transmigrated cells were stained for CD3 (UCHT1), CD4 (RPA-T4), CD8 (RPA-T8), CD45RO (UCHL1), CCR7 (G043H7), CD69 (FN50), CD103 (Ber-act8), CD38 (HIT32) and HLA-DR (LN3) and analyzed/counted by flow cytometry (MACSquant, Miltenyi biotec, Bergisch Gladbach, Germany). […] The percentage of input was calculated as the ratio between the number of cells migrating in a given condition and the number of cells used for the chemotaxis assay.
# blood T cells = experiment: Transwell chemotaxis of blood T cells (PBMC) towards S1P; type: cell-based, human
# Excerpt: T cell subsets were identified by flow cytometry.
# S1PR1 = S1PR1 (Homo sapiens, UniProt P21453); conditions: read-out: Kd of S1P to S1PR1; cited from earlier work
# Chain of S1PR1 (P21453 whole entry, species assumed): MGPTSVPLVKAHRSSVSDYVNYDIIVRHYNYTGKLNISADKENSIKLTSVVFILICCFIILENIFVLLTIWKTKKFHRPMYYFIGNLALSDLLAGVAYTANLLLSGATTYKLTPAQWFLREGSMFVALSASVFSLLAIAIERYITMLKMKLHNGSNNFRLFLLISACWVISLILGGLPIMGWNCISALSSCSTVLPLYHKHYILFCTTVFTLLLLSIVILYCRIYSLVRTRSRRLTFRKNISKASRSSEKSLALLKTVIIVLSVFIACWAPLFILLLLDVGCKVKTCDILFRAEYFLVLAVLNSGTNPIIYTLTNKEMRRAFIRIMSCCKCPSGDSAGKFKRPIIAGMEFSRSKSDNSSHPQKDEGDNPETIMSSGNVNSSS
smiles,measurement,setting,value
Cc1cc(CN)cc(C)c1NC(=O)c1ccc(-c2cc(Cl)ccc2Cl)o1 [CYM50358],Effect of pharmacological inhibitor on tonsil naive T cell migration to S1P,tonsil naive T cells; S1P gradient,insensitive
CCCCCCCCc1ccc(CCC(N)(CO)CO)cc1 [FTY720],Effect of pharmacological inhibitor on tonsil naive T cell migration to S1P,tonsil naive T cells; S1P gradient,strongly inhibited
same,Impact on memory T cell migration in the presence of S1P,tonsil TCM and TEM cells,negative impact
same,Effect on peripheral TEM cells and NK cells in treated patients,[1],does not affect
same,Effect on peripheral naive and central memory T cells in treated patients,[1],quick decrease
Cc1nn(C)c2nc(NNC(=O)Nc3cc(Cl)nc(Cl)c3)cc(C(C)C)c12 [JTE-013],Effect of pharmacological inhibitor on tonsil naive T cell migration to S1P,tonsil naive T cells; S1P gradient,increased
same,Effect on the inhibitory effect of S1P on TCM and TEM migration,tonsil TCM and TEM cells; tonsil TCM and TEM cells,abrogated
same,Effect on S1P inhibition of spontaneous migration of act-CD4+ and act-CD8+ T cells,[2]; CD38+HLA-DR+ tonsil T cells,curbed
same,Effect on S1P-mediated decrease of CXCL12-induced migration of TEM and TCM cells,"tonsil T cell subsets; CXCL12 12 ng/ml, S1P 37 nM, JTE-013 1000 nM for 2 h",abrogated
same,Effect on S1P inhibition of spontaneous migration of CD4+ TRM cells,[3]; CD69 positive,abrogated
FC(F)(F)c1cccc(-c2noc(-c3cc(-c4ccccc4)c(C(F)(F)F)s3)n2)c1 [SEW2871],Effect of pharmacological inhibitor on tonsil naive T cell migration to S1P,tonsil naive T cells; S1P gradient,strongly inhibited
same,Impact on memory T cell migration in the presence of S1P,tonsil TCM and TEM cells,negative impact
"CCCCCCCCCCCCC/C=C/[C@@H](O)[C@@H](N)COP(=O)(O)O [S1P, Sphingosine-1 phosphate]",Effect of S1P gradients on tonsil naive T cell chemotaxis,tonsil naive T cells; compared to control without S1P,strongly increased
same,S1P concentration giving maximum migration of tonsil naive T cells,"tonsil naive T cells; transwell, S1P gradient",30 to 60 nM
same,Effect of S1P on spontaneous migration of tonsil TCM and TEM cells,"tonsil TCM and TEM cells; S1P in lower chamber, especially memory CD4 T cells",inhibited
same,Effect of S1P on spontaneous migration of act-CD4+ and act-CD8+ T cells,[2],strongly inhibited
same,Response of blood memory T cells to S1P,blood T cells; PBMC,did not respond
same,Response of blood naive T cells to S1P,blood T cells; PBMC from healthy donors,did not respond
same,Kd,S1PR1,8 nM
same,Effect of S1P on CXCL12-induced migration of TEM cells,tonsil T cell subsets; S1P 37 nM in lower chamber,decreased
same,Effect of S1P on CXCL12-induced migration of naive CD4 and CD8 T cells,tonsil T cell subsets; S1P 37 nM in lower chamber,slightly increased
same,Effect of S1P on spontaneous migration of CD4+ TRM cells,[3],inhibited
